# Experimental data: PMC9040055, “Triterpenes from Pholiota populnea as Cytotoxic Agents and Chemosensitizers to Overcome Multidrug Resistance of Cancer Cells” (Journal of Natural Products, 2022)
# Entries after “also recorded” stand apart in the source; their conditions may differ. Like-named read-outs stand apart in the source and are kept apart here.
# Tests used:
# [1] = system: Colo 205 doxorubicin-sensitive colon adenocarcinoma cells; test: MTT assay for cytotoxic effect, Colo 205; type: cell-based, human; conditions: 24 h incubation, triplicate, read-out: Colo205 (IC50 μM) mean
# Protocol: (§1) The human colon adenocarcinoma cell lines, the Colo 205 (ATCC-CCL-222) doxorubicin-sensitive parent and Colo 320/MDR-LRP (ATCC-CCL-220.1) resistant to anticancer agents expressing ABCB1, were purchased from LGC Promochem (Teddington, UK). […] The cell lines were incubated in a humidified atmosphere (5% CO2, 95% air) at 37 °C. The effects of increasing concentrations of the compounds on cell growth were tested in 96-well flat-bottomed microtiter plates. The 2-fold serial dilutions of the tested compounds were made starting with 100 μM. Then, 10^4 human colonic adenocarcinoma cells in 100 μL of the medium (RPMI-1640) were added to each well, except for the medium control wells. The adherent human embryonic lung fibroblast cell line (10^4/well) was seeded in EMEM medium in 96-well flat-bottomed microtiter plates for 4 h before the assay. The serial dilutions of the compounds were made in a separate plate starting with 100 μM and then transferred to the plates containing the adherent corresponding cell line. Culture plates were incubated at 37 °C for 24 h; at the end of the incubation period, 20 μL of MTT (thiazolyl blue tetrazolium bromide) solution (from a 5 mg/mL stock solution) was added to each well. After incubation at 37 °C for 4 h, 100 μL of sodium dodecyl sulfate (SDS) solution (10% SDS in 0.01 M HCl) was added to each well, and the plates were further incubated at 37 °C overnight. Cell growth was determined by measuring the optical density (OD) at 540 nm (ref 630 nm) with a Multiscan EX ELISA reader (Thermo Labsystems, Cheshire, WA, USA). […] IC50 values and the SD of triplicate experiments were calculated by using GraphPad Prism software version 5.00 for Windows with nonlinear regression curve fit (GraphPad Software, San Diego, CA, USA; www.graphpad.com).
# [2] = system: Colo 320/MDR-LRP resistant colon adenocarcinoma cells; test: MTT assay for cytotoxic effect, Colo 320; type: cell-based, human; conditions: 24 h incubation, triplicate, read-out: Colo320 (IC50 μM) mean
# Protocol: as §1
# [3] = MTT assay for cytotoxic effect, MRC-5; type: cell-based, human; conditions: human
# Protocol: as §1
# [4] = molecular target: P-glycoprotein (ABCB1) in MDR Colo 320 cells (Homo sapiens, UniProt P08183); test: Rhodamine 123 accumulation assay (P-gp efflux pump inhibition); type: cell-based
# Sequence of P-glycoprotein (ABCB1) in MDR Colo 320 cells (P08183 whole entry): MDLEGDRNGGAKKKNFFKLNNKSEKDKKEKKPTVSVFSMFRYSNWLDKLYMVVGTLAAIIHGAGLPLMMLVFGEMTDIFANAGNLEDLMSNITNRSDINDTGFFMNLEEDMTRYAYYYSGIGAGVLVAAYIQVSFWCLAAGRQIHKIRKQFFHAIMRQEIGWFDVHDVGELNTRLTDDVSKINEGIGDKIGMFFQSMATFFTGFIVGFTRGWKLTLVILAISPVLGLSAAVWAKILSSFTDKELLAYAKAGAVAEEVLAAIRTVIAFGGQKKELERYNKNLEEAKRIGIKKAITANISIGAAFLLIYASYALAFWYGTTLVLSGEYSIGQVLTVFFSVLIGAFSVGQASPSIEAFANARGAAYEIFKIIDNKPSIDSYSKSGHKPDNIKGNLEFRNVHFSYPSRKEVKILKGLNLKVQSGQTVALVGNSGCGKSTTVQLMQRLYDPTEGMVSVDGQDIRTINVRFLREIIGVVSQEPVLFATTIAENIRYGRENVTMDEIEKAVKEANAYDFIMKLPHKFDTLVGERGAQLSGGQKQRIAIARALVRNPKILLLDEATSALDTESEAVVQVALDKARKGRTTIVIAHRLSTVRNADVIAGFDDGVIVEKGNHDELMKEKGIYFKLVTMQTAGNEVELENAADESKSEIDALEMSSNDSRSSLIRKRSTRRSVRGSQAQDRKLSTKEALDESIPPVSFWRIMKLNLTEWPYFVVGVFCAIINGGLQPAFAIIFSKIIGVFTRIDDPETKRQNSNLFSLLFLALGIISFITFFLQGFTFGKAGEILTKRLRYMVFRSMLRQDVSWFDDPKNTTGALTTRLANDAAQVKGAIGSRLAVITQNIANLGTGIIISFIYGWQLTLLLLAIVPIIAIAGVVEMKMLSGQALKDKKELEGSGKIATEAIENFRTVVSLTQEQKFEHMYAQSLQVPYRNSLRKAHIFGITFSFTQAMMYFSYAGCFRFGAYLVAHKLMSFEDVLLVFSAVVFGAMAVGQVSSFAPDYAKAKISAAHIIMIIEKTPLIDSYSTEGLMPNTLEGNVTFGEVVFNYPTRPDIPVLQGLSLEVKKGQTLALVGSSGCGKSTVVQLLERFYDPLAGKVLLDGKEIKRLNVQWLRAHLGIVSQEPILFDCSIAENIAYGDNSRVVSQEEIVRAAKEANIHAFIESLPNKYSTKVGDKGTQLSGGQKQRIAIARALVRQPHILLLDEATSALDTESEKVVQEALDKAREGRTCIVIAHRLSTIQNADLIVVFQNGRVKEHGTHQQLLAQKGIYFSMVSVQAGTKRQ
# Protocol: The inhibitory activities of compounds 1–3, 5, and 6 on efflux function were evaluated by measuring the intracellular accumulation of rhodamine 123, a well-known P-glycoprotein substrate fluorescent dye, within the Colo320 MDR cells. Tariquidar, a strong P-gp inhibitor, was used as positive control. All tested compounds were dissolved in DMSO, and the final concentration (2.00%) of the solvent was investigated for any effect on the retention of rhodamine 123. […] The cell numbers of the human colon adenocarcinoma cell lines were adjusted to 2 × 10^6 cells/mL, resuspended in serum-free RPMI 1640 medium, and distributed in 0.5 mL aliquots into Eppendorf centrifuge tubes. […] DMSO at 2% v/v was used as solvent control. Next, 10 μL (5.2 μM final concentration) of the fluorochrome and ABCB1 substrate rhodamine 123 (Sigma) were added to the samples, and the cells were incubated for a further 20 min at 37 °C, washed twice, and resuspended in 1 mL of PBS for analysis. The fluorescence of the cell population was measured with a PartecCyFlow flow cytometer (Partec, Münster, Germany). The FAR was calculated as the quotient between FL-1 of the treated/untreated resistant Colo 320 cell line over the treated/untreated sensitive Colo 205 cell line according to the following equation: [drawing 2]
# [5] = system: Colo 320 colon adenocarcinoma cell line; test: Checkerboard combination assay with doxorubicin; type: cell-based, human; conditions: for interaction (type of interaction with doxorubicin): Colo 320, based on combination indices; for CI at ED50 (combination index value at the 50% growth inhibition dose): with doxorubicin, Colo 320, 72 h, at best ratio
# Protocol: A checkerboard microplate combination assay was performed, which is a widely used in vitro method for the assessment of drug interactions. […] The assay was carried out on the Colo 320 colon adenocarcinoma cell line. The final concentration of the compounds and doxorubicin used in the combination experiment was chosen in accordance with their cytotoxicity toward this cell line. The dilutions of doxorubicin were made in a horizontal direction in 100 μL, and the dilutions of the compounds vertically in the microtiter plate in a 50 μL volume. Then, 6 × 10^3 of Colo 320 cells in 50 μL of the medium were added to each well, except for the medium control wells. The plates were incubated for 72 h at 37 °C in a 5% CO2 atmosphere. The cell growth rate was determined after MTT staining. At the end of the incubation period, 20 μL of MTT solution (from a stock solution of 5 mg/mL) was added to each well. After incubation at 37 °C for 4 h, 100 μL of SDS solution (10% in 0.01 M HCI) was added to each well, and the plates were further incubated at 37 °C overnight. OD was measured at 540 nm (ref 630 nm) with a Multiscan EX ELISA reader.
# [6] = system: MRC-5 embryonic lung fibroblast cell line; test: MTT assay for cytotoxic effect, MRC-5; type: cell-based, human; conditions: MTT, 24 h incubation, triplicate
# Protocol: as §1
# [7] = system: sensitive (Colo 205) human colon adenocarcinoma cells; design: method as in PMID 33809760; conditions: sensitive Colo 205 cells; cited from earlier work
# [8] = system: resistant (Colo 320) human colon adenocarcinoma cells; design: method as in PMID 33809760; conditions: resistant Colo 320 cells; cited from earlier work
# [9] = system: panel of 71 human cancer cells from 15 tumor types; design: method as in PMID 29931585; conditions: against 27 cell lines of a panel of 71 human cancer cells; read-out: cytotoxicity IC50; cited from earlier work
# [10] = MRC-5 embryonic lung fibroblast cells, MTT, 24 h incubation, triplicate, read-out: MRC-5 (IC50 μM) mean
Compound,"IC50 ([1]; Homo sapiens, COLO 205, 24 h) [µM]","IC50 ([2]; Homo sapiens, COLO 320, 24 h) [µM]",IC50 at 24 h ([3]; MRC-5 (IC50 μM) mean) [µM],"FAR (fluorescence activity ratio) ([4]; human, 20 min, 20 μM)","FL-1 ([4]; human, 20 min, 20 μM)","Peak Ch ([4]; human, 20 min, 20 μM)",IC50 [1] [µM],IC50 [2] [µM],interaction (type of interaction with doxorubicin) [5],CI at ED50 (combination index value at the 50% growth inhibition dose) [5],further results
"CC(=O)O[C@H]1[C@H](OC(=O)C[C@](C)(O)CC(=O)O)C[C@]2(C)C3=C(C(=O)C[C@H]2C1(C)C)[C@]1(C)CC[C@H]([C@H](C)CCC(=O)C(C)(C)O)[C@@]1(C)CC3 [compound 1, pholiol A]",> 100,> 100,> 100,3.418,39.600,42.200,–,–,–,–,–
"COC(=O)C[C@@](C)(O)CC(=O)O[C@@H]1C[C@]2(C)C3=C(C(=O)C[C@H]2C(C)(C)[C@H]1OC(C)=O)[C@]1(C)CC[C@H]([C@H](C)CCC(=O)C(C)(C)O)[C@@]1(C)CC3 [compound 2, pholiol B]",–,–,–,6.880,79.700,77.700,> 25,> 25,synergistic,0.348,IC50 ([1]; listed as Pholiol B (2)): 67.9 µM; IC50 ([2]; listed as Pholiol B (2)): 61.5 µM; interaction (type of interaction with doxorubicin) ([5]; listed as pholiol B (2)): synergism
"CC(=O)O[C@H]1[C@H](OC(=O)C[C@](C)(O)CC(=O)O)C[C@]2(C)C3=C(CC[C@H]2C1(C)C)[C@]1(C)CC[C@H]([C@H](C)CCC(=O)C(C)(C)O)[C@@]1(C)[C@H](O)C3 [compound 3, pholiol C]",> 100,> 100,> 100,0.967,11.200,18.400,–,–,–,–,–
"COC(=O)C[C@@](C)(O)CC(=O)O[C@@H]1C[C@]2(C)C3=C(CC[C@H]2C(C)(C)[C@H]1OC(C)=O)[C@]1(C)CC[C@H]([C@H](C)CCC(=O)C(C)(C)O)[C@@]1(C)[C@H](O)C3 [compound 4, pholiol D]",–,48.9,–,–,–,–,> 25,> 25,synergistic,0.660,IC50 ([1]; listed as Pholiol D (4)): 51.4 µM; interaction (type of interaction with doxorubicin) ([5]; listed as pholiol D (4)): Synergism
"C/C(=C\CC/C=C(\C)CC/C=C(\C)CC[C@H](O)C(C)(C)O)CC/C=C(\C)CC[C@H](O)C(C)(C)O [compound 5, (3S,6E,10E,14E,18E,22S)-2,3,22,23-tetrahydroxy-2,6,10,15,19,23-hexamethyl-6,10,14,18-tetracosatetraene]",26.7,27.5,–,–,–,–,> 25,> 25,very strong synergistic; also recorded: synergistic,0.082,"IC50 at 24 h [3, 10]: 29.1 µM; IC50 [6]: > 25 µM; FAR (fluorescence activity ratio) ([4]; conc. 20 μM, rhodamine 123, Colo 320 vs Colo 205): 6.638; P-gp MDR efflux pump inhibitory activity (in words) ([4]; resistant Colo320 cells, rhodamine 123 accumulation): inhibition of P-gp MDR efflux pump activity; also recorded: capacity to inhibit the efflux-pump; also recorded: moderate P-gp inhibitory activity; interaction (type of interaction with doxorubicin) ([5]; listed as compound 5): very strong synergism"
"CC(C)[C@@H](C)/C=C/[C@@H](C)[C@H]1CC[C@H]2C3=CC=C4C[C@@H](O)CC[C@]4(C)[C@H]3CC[C@]12C [compound 6, ergosterol]",–,–,0.5,–,–,–,–,–,–,–,interaction (type of interaction with doxorubicin) ([5]; listed as ergosterol (6)): additive effect; also recorded: nearly additive
"COc1cccc2c1C(=O)c1c(O)c3c(c(O)c1C2=O)C[C@@](O)(C(=O)CO)C[C@@H]3O[C@H]1C[C@H](N)[C@H](O)[C@H](C)O1 [doxorubicin, reference compound]",–,–,–,–,–,–,2.5,7.4,–,–,"IC50 at 24 h [3, 10]: > 20 µM"
"CC(C)[C@@H](C)C=C[C@@H](C)[C@H]1CC[C@H]2C3=CCC4CC(=O)CC[C@]4(C)[C@H]3CC[C@]12C (stereo partly shown) [ergosta-7,22-diene-3-one]",–,–,–,–,–,–,–,–,–,–,IC50 [7]: 11.6 ± 1.7 µM; IC50 [8]: 8.4 ± 1.1 µM
CC(C)=CCC[C@@H](C)[C@@H]1CC[C@]2(C)C3=C(CC[C@@]12C)[C@@]1(C)CC[C@H](O)C(C)(C)[C@@H]1CC3 [euphol],–,–,–,–,–,–,–,–,–,–,IC50 [9]: < 10 µM
"COc1cc2c(cc1OC)CN(CCc1ccc(NC(=O)c3cc(OC)c(OC)cc3NC(=O)c3cnc4ccccc4c3)cc1)CC2 [tariquidar, reference compound]",–,–,–,–,–,–,–,–,–,–,"FAR (fluorescence activity ratio) ([4]; conc. 0.2 μM, positive control, rhodamine 123): 5.533"
